The text below walks through data of PMC11952222, “Development and comparison of single FLT3-inhibitors to dual FLT3/TAF1-inhibitors as an anti-leukemic approach” (PLOS One, 2025).

One test has as its target T1, TAF1(2) bromodomain (Homo sapiens, UniProt P21675).
T1 construct: with specific focus on TAF1(2) bromodomain assessed by the KdELECT assay; purchased Eurofins/DiscoverX
T1 sequence (P21675 1519-1628 limits assumed): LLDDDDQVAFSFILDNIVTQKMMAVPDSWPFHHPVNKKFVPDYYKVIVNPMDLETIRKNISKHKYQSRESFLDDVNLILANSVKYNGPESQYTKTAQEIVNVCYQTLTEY
Put plainly: Eurofins/DiscoverX KdELECT, TAF1(2) bromodomain IC50. The class given is binding. The note with it: 11-point 3-fold dilution, top concentration 10,000 nM. Here is the method:
(§1) The 3i-compounds underwent activity testing against a panel of 32 bromodomains using the Eurofins/DiscoverX bromoMAX assay, with specific focus on TAF1(2) bromodomain assessed by the KdELECT assay. In a similar manner, kinase activity was evaluated using a panel of 97 kinase proteins using the Eurofins/DiscoverX scanELECT and KdELECT assays, with specific focus on FLT3 protein. An 11-point 3-fold serial dilution of each test compound was prepared in 100% DMSO at 100x final test concentration and subsequently diluted to final concentration (DMSO 1%). […] Percent control was calculated using the following formula: ((test compound signal – positive control signal)/ (negative control signal – positive control signal)) × 100.

The next test has as its target T2, FLT3(D835V) (Homo sapiens, UniProt P36888, D835V).
T2 construct: purchased Eurofins/DiscoverX
T2 sequence (P36888 27-993 D835V): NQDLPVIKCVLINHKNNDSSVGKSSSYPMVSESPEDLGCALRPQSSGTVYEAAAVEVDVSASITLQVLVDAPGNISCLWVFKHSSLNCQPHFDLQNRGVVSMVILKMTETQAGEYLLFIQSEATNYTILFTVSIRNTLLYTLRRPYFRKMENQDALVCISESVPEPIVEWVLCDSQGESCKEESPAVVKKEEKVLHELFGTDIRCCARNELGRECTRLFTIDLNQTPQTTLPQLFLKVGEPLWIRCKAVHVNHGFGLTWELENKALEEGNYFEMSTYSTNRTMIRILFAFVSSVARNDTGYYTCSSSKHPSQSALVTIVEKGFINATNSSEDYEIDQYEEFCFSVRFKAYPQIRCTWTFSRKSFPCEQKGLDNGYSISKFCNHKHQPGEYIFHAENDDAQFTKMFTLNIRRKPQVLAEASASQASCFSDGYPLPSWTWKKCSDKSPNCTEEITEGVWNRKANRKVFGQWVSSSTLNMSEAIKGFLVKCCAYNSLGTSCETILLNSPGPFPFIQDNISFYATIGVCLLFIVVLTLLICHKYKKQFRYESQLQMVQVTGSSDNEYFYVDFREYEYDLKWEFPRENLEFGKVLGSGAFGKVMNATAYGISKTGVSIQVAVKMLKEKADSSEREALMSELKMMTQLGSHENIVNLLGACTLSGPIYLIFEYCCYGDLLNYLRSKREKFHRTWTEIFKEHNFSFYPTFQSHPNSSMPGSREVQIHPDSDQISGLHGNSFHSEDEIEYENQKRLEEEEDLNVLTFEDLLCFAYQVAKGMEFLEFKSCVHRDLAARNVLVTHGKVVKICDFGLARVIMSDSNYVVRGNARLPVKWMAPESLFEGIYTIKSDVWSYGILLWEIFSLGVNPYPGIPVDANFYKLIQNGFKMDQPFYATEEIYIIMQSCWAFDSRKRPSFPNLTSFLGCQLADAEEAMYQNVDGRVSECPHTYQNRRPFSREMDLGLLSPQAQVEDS
The test can be described thus: Eurofins/DiscoverX cell free kinase assay, percent control. The class given is binding. As to conditions: for per_control_1000nM FLT3(D835V): 1000 nM compound; for per_control_10000nM FLT3(D835V): 10000 nM compound. As to the method: as §1
(§2) Fig 2 Results of 3i-compound series at concentrations of 1 µM and 10 µM in a cell free Eurofins/DiscoverX assay for kinase and bromodomain proteins. (A) Single-targeted compounds with tyrosine kinase activity but without bromodomain activity. (B) Dual-targeted compounds with both tyrosine kinase and bromodomain activity.

The next test has as its target T3, KIT (Homo sapiens, UniProt P10721).
T3 construct: purchased Eurofins/DiscoverX
Described as above. The class given is binding. As to conditions: for per_control_1000nM KIT: 1000 nM compound; for per_control_10000nM KIT: 10000 nM compound. As to the method: as §1, §2

Another test has as its system MOLM13 cells. Put plainly: Cell viability, CellTiter Glo, MOLM13. The class given is cell-based. The note with it: for pIC50: 72h. As to the method:
(§3) Drug sensitivity and resistance testing in MOLM13, DU4475, HDQP1, and IGROV1 cells was conducted at the Finnish Institute for Molecular Medicine (FIMM), University of Helsinki. In brief, the effects of compounds on cell viability and cell death were quantified with Cell-Titer Glo (Promega) and CellTox Green (Promega), respectively. Compounds or vehicle control were included in cell culture medium at described concentrations for 72h using an automated liquid dispenser in 384-well format. For KASUMI-1 experiments, cells were grown in 96-well plates and similarly incubated with compounds at indicated concentrations for 72h in RPMI + 10% FCS + Gentamicin, followed by lysis and quantification of cell viability with Cell-Titer Glo (Promega).
(§4) Raw values from viability and toxicity assays were normalized to DMSO and plotted to heat maps in R using pheatmap (RRID:SCR_016418). Dose-response curves were generated using the drc package in R [40]. In brief, nonlinear modelling was performed to calculate IC50 values for each compound where possible and resulting curves from drc and experimental values were plotted using ggplot2 (RRID:SCR_014601).

The subject of the next test is IGROV1 cells. The test can be described thus: Cell viability, CellTiter Glo, IGROV1. The class given is cell-based. As to the method: as §3, §4
In general terms: ATP-based viability assays read luminescence as a measure of living cells.

The subject of a further test is HDQP1 cells. Put plainly: Cell viability, CellTiter Glo, HDQP1. The class given is cell-based. As to the method:
as §3, §4

[1] abbreviates: kdELECT, read-out: TAF1(2) IC50.
Where [2] appears, read: one independent experiment per value, read-out: MOLM13 IC50, individual dose-response curve (CellTiter Glo).
Where [3] appears, read: Homo sapiens, MOLM-13, 72 h, mean of n = 3 independent experiments, read-out: MOLM13 IC50 (CellTiter Glo).
The mark [4] stands for this setting: 72h, one independent experiment per value, read-out: IGROV1 IC50, individual dose-response curve (CellTiter Glo).
[5] abbreviates: Homo sapiens, IGROV-1, 72 h, one independent experiment per value, read-out: IGROV1 IC50, individual dose-response curve (CellTiter Glo).
Setting [6] is: 72h, mean of n = 3 independent experiments, read-out: HDQP1 IC50 (CellTiter Glo).
The mark [7] stands for this setting: 72h, one independent experiment per value, read-out: HDQP1 IC50, individual dose-response curve (CellTiter Glo).
[8] abbreviates: Homo sapiens, HDQ-P1, 72 h, one independent experiment per value, read-out: HDQP1 IC50, individual dose-response curve (CellTiter Glo).
The mark [9] stands for this setting: Homo sapiens, IGROV-1, 72 h, mean of n = 3 independent experiments, read-out: IGROV1 IC50 (CellTiter Glo).

pIC50: −log10 of the molar value. Values joined by “and” are separate entries in the source; they are usually repeats but may differ in a detail not shown here. Identical values can stand only once. Like-named read-outs stand apart in the source and are kept apart here.

T3 sequence (P10721 26-976): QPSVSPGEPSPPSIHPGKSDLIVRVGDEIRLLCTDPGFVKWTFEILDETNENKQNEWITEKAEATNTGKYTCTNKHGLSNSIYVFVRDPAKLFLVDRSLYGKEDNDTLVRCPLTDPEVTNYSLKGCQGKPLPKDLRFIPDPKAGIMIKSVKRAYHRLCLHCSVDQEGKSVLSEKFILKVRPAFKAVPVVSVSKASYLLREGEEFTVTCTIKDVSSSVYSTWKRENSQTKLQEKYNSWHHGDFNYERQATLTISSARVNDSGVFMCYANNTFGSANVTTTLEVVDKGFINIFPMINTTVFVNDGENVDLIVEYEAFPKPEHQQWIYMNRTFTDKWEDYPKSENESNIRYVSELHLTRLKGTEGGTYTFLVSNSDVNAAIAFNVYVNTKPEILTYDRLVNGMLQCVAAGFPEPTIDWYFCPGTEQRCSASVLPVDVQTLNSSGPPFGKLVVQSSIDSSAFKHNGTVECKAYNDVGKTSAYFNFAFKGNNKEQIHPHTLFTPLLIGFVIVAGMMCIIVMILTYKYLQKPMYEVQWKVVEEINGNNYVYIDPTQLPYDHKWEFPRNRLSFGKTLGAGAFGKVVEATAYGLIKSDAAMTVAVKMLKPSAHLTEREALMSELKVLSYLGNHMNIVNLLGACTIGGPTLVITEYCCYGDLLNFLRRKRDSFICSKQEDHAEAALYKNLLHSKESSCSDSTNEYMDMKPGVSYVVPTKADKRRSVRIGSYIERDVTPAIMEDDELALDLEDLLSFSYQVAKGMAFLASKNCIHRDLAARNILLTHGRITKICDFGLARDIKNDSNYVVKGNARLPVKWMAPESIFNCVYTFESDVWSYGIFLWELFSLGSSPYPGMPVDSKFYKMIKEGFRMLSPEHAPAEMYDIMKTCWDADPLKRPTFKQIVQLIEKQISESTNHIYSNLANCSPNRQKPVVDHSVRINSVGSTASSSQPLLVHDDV

Broadly, the pIC50 is −log10 of the IC50, conventionally taken in molar units. With `COc1ccc(-c2cc(NC(=O)c3ccc(C(C)(C)C)cc3)[nH]n2)cc1` [Compound 3i-1103], the pIC50 was 6.32 on TAF1(2) bromodomain (setting [1]); 7.03 and 7.09 and 6.72 in the test on MOLM13 cells (setting [2]); 6.92 with MOLM13 cells (setting [3]); under 4.52 in the test with IGROV1 cells (setting [4]); 4.75 in the test with IGROV1 cells (setting [5]). Also, the “per_control_1000nM FLT3(D835V)” value at FLT3(D835V) was found to be 0.9 percent control. Besides, the “per_control_10000nM FLT3(D835V)” value at FLT3(D835V) turned out to be 0 percent control. Besides, the “per_control_1000nM KIT” value on KIT amounted to 0 percent control. In addition, on KIT, the “per_control_10000nM KIT” value was determined as 0 percent control.

In the case of `Cc1cc(-c2cc(NC(=O)c3ccc(C(C)(C)C)cc3)[nH]n2)ccn1` [Compound 3i-1246, 4-(tert-butyl)-N-(3-(2-methylpyridin-4-yl)-1H-pyrazol-5-yl)benzamide], the pIC50 is 6.55 and 6.59 on TAF1(2) bromodomain (setting [1]); 6.74 and 6.37 and 6.57 with MOLM13 cells (setting [2]); 6.53 with MOLM13 cells (setting [3]); under 5.00 in the test on HDQP1 cells (setting [6]); 4.98 and 4.71 in the test on HDQP1 cells (setting [7]); 4.87 in the test with HDQP1 cells (Homo sapiens, HDQ-P1, 72 h, mean of n = 3 independent experiments, read-out: HDQP1 IC50 (CellTiter Glo)). The pIC50 with HDQP1 cells (setting [8]) is 5.00; in the test on IGROV1 cells (setting [4]), 4.94 and 5.06; with IGROV1 cells (setting [9]) it was 4.96; in the test with IGROV1 cells (setting [5]), 4.92. Also, on FLT3(D835V), the “per_control_1000nM FLT3(D835V)” value is recorded as 0.5 percent control. Besides, the “per_control_10000nM FLT3(D835V)” value on FLT3(D835V) is 0.55 percent control. Further, the “per_control_1000nM KIT” value on KIT is on record as 0 percent control. Moreover, the “per_control_10000nM KIT” value at KIT was 0 percent control.

In the case of `CC(C)(C)c1ccc(C(=O)Nc2cc(-c3ccccc3)n[nH]2)cc1` [Compound 3i-1247, 4-(tert-butyl)-N-(3-phenyl-1H-pyrazol-5-yl)benzamide], the negative-log IC50 (pIC50) against TAF1(2) bromodomain (TAF1(2) IC50, kdELECT) is under 5.00; in the test with MOLM13 cells (mean of n = 3 independent experiments, read-out: MOLM13 IC50 (CellTiter Glo)), 7.14; with MOLM13 cells (setting [2]), 7.41 and 6.86 and 7.37; in the test on HDQP1 cells (setting [7]), under 4.52; in the test on IGROV1 cells (72h, mean of n = 3 independent experiments, read-out: IGROV1 IC50 (CellTiter Glo)), 5.48; in the test on IGROV1 cells (setting [4]), 5.46 and 5.42 and 5.60. Moreover, at FLT3(D835V), the “per_control_1000nM FLT3(D835V)” value is on record as 2.5 percent control. Moreover, on FLT3(D835V), the “per_control_10000nM FLT3(D835V)” value turned out to be 0 percent control. Further, the “per_control_1000nM KIT” value on KIT turned out to be 0 percent control. For the same compound, on KIT, the “per_control_10000nM KIT” value worked out at 0 percent control. Also, the “anti-proliferative activity in MOLM13 cells” value with MOLM13 cells (comparison within the compound set) is given as “most potent compound overall”.

On to `Cn1cc(-c2cc(NC(=O)c3ccc(C(C)(C)C)cc3)n[nH]2)ccc1=O` [Compound 3i-1248, 4-(tert-butyl)-N-(5-(1-methyl-6-oxo-1,6-dihydropyridin-3-yl)-1H-pyrazol-3-yl)benzamide], for which the negative logarithm of the IC50 (pIC50) is 8.29 on TAF1(2) bromodomain (setting [1]); 6.27 and 5.80 and 6.15 in the test on MOLM13 cells (setting [2]); 6.03 with MOLM13 cells (setting [3]); 4.68 in the test on HDQP1 cells (72h, mean of n = 3 independent experiments, listed as 1248, read-out: HDQP1 IC50 (CellTiter Glo)); under 5.00 in the test on HDQP1 cells (setting [6]); 4.68 and 4.66 in the test on HDQP1 cells (setting [7]). Moreover, the negative logarithm of the IC50 (pIC50) with HDQP1 cells (setting [8]) was 4.73; with IGROV1 cells (setting [4]) it was 4.98 and 5.11; with IGROV1 cells (setting [9]) it was 5.00; in the test on IGROV1 cells (setting [5]), 4.93. For the same compound, the “per_control_1000nM FLT3(D835V)” value on FLT3(D835V) was determined as 1.3 percent control. The “per_control_10000nM FLT3(D835V)” value on FLT3(D835V) stood at 0.7 percent control. In addition, at KIT, the “per_control_1000nM KIT” value was found to be 8.2 percent control. Also, the “per_control_10000nM KIT” value at KIT turned out to be 0.1 percent control.
